# Legend:
# [1] = molecular target: Tyrosine-protein kinase Blk (Homo sapiens, UniProt P51451); experiment: Inhibition of recombinant full length His-tagged human BLK expressed in baculovirus expression system using poly (4:1 Glu, Tyr) as substrate preincubated for 1 hr followed by substrate addition measured after 1 hr by ADP-glo assay
# [2] = molecular target: T1, Tyrosine-protein kinase JAK3 (Homo sapiens, UniProt P52333); experiment: Inhibition of recombinant GST-tagged human JAK3 expressed in baculovirus expression system using poly (4:1 Glu, Tyr) as substrate preincubated for 1 hr followed by substrate addition measured after 1 hr by ADP-glo assay
# T1 sequence (P52333 whole entry): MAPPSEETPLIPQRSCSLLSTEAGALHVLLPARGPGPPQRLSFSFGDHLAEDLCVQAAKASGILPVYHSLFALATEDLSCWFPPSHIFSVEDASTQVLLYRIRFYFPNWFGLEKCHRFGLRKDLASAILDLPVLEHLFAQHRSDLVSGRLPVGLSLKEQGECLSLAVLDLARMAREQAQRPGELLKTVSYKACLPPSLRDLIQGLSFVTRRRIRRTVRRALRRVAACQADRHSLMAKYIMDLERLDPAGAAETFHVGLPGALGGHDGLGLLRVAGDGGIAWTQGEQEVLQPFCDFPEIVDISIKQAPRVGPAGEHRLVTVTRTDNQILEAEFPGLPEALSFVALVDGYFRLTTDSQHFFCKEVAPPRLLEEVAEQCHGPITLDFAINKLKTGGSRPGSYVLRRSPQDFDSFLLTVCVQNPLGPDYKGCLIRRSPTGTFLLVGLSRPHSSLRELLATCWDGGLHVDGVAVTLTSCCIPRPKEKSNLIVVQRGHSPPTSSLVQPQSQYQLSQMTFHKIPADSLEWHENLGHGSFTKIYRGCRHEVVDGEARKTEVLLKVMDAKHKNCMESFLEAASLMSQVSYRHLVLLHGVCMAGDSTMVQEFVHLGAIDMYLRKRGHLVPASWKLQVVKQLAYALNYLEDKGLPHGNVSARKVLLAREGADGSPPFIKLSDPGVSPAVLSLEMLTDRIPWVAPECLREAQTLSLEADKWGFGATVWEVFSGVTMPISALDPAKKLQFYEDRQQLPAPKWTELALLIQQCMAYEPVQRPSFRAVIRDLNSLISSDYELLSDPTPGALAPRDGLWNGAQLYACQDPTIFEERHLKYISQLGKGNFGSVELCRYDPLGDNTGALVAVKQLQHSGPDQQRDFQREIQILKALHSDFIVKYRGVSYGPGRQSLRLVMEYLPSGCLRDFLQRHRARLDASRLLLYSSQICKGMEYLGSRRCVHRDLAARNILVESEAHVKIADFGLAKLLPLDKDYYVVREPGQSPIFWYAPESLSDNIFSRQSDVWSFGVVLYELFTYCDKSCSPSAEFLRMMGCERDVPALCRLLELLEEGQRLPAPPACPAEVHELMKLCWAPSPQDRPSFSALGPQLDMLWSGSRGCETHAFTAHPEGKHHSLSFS
# [3] = molecular target: T2, Tyrosine-protein kinase BTK (Homo sapiens, UniProt Q06187); experiment: Irreversible inhibition of recombinant full length His-tagged human BTK expressed in baculovirus expression system using poly (4:1 Glu, Tyr) as substrate preincubated for 2 to 60 mins followed by substrate addition measured after 1 hr by ADP-glo assay
# T2 sequence (Q06187 whole entry): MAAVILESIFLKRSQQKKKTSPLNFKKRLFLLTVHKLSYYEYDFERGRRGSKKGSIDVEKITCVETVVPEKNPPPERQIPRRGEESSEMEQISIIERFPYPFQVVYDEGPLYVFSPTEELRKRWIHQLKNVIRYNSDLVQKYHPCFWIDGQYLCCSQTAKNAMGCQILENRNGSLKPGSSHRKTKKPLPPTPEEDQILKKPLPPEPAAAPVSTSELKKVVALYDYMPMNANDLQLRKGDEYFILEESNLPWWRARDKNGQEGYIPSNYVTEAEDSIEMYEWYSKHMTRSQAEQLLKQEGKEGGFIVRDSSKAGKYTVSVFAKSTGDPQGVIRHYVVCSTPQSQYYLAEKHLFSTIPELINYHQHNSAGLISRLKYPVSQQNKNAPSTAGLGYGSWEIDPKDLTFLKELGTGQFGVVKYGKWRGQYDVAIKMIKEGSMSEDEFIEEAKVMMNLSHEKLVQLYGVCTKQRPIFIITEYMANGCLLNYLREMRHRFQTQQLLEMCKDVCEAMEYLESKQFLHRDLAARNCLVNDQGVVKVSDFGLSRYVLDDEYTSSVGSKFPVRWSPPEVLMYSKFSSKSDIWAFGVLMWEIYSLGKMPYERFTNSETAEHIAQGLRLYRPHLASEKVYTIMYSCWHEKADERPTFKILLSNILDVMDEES
# [4] = molecular target: T2, Tyrosine-protein kinase BTK; experiment: Irreversible inhibition of recombinant full length His-tagged human BTK expressed in baculovirus expression system using poly (4:1 Glu, Tyr) as substrate assessed as ratio of Kinact to Ki preincubated for 2 to 60 mins followed by substrate addition measured after 1 hr by ADP-glo assay
# HL-60 = experiment: Antiproliferative activity against human HL60 cells after 72 hrs by CellTiter-Glo assay; format: functional; settings: HL-60, 72 h
# MOLM-13 = experiment: Antiproliferative activity against human MOLM13 cells after 72 hrs by CellTiter-Glo assay; format: functional; settings: MOLM-13, 72 h
# OCI-AML-3 = experiment: Antiproliferative activity against human OCI-AML3 cells after 72 hrs by CellTiter-Glo assay; format: functional; settings: OCI-AML-3, 72 h
# [5] = Antiproliferative activity against mouse BA/F3 cells after 72 hrs by CellTiter-Glo assay; format: cell-based, BaF3
# U-937 = experiment: Antiproliferative activity against human U937 cells after 72 hrs by CellTiter-Glo assay; format: functional; settings: U-937, 72 h
# NAMALVA = experiment: Antiproliferative activity against human NAMALWA cells after 72 hrs by CellTiter-Glo assay; format: functional
# [6] = Antiproliferative activity against human PF138 cells after 72 hrs by CellTiter-Glo assay; format: functional
# NCI-H358 = experiment: Antiproliferative activity against human NCI-H358 cells after 72 hrs by CellTiter-Glo assay; format: functional; settings: NCI-H358, 72 h
# CMK = experiment: Antiproliferative activity against human CMK cells after 72 hrs by CellTiter-Glo assay; format: functional
# Pfeiffer = experiment: Antiproliferative activity against human Pfeiffer cells after 72 hrs by CellTiter-Glo assay; format: functional
# A-431 = experiment: Antiproliferative activity against human A431 cells after 72 hrs by CellTiter-Glo assay; format: functional; settings: A-431, 72 h
# [7] = Antiproliferative activity against human MOLM16 cells after 72 hrs by CellTiter-Glo assay; format: functional; settings: MOLM16, 72 h
# [8] = molecular target: Epidermal growth factor receptor (Homo sapiens) (UniProt P00533); experiment: Inhibition of TEL-fused EGFR (unknown origin) expressed in mouse BA/F3 cells after 72 hrs by CellTiter-Glo assay; format: cell-based
# Epidermal growth factor receptor (Homo sapiens), sequence (P00533 whole entry, the tested form may be a part): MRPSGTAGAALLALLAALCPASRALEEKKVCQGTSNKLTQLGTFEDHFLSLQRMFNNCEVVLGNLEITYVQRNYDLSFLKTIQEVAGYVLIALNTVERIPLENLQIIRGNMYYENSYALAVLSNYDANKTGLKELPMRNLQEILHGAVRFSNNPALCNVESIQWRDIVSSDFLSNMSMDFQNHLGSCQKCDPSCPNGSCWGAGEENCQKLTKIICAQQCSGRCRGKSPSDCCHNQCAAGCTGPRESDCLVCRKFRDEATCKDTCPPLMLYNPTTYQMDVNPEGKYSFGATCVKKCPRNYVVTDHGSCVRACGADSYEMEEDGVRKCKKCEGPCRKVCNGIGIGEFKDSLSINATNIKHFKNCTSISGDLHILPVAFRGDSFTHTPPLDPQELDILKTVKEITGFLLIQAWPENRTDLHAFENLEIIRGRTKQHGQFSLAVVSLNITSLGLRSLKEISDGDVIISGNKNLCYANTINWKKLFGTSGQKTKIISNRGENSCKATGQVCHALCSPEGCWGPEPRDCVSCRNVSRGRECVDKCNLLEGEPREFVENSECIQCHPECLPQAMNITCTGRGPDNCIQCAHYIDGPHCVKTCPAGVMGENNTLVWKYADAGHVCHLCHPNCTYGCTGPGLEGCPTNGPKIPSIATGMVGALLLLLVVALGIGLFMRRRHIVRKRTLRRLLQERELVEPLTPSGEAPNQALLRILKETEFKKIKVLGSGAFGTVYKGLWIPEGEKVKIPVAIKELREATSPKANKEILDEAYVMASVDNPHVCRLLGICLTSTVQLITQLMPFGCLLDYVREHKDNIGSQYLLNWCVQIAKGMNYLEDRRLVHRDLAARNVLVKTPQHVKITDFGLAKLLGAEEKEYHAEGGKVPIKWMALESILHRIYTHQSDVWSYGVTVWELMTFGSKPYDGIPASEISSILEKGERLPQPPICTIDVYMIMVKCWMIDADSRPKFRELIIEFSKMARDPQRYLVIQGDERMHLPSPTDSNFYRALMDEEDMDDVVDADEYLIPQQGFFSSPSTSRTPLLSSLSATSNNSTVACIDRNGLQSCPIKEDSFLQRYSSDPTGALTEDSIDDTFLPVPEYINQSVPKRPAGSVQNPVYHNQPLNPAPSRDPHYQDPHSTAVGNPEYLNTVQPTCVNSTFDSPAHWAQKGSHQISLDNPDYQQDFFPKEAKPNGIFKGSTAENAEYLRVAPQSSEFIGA
# MOLM-14 = experiment: Antiproliferative activity against human MOLM14 cells after 72 hrs by CellTiter-Glo assay; format: functional; settings: MOLM-14, 72 h
# HCT-116 = experiment: Antiproliferative activity against human HCT116 cells after 72 hrs by CellTiter-Glo assay; format: functional; settings: HCT-116, 72 h
# NB-4 = experiment: Antiproliferative activity against human NB4 cells after 72 hrs by CellTiter-Glo assay; format: functional; settings: NB-4, 72 h
# NALM-6 = experiment: Antiproliferative activity against human NALM6 cells after 72 hrs by CellTiter-Glo assay; format: functional; settings: NALM-6, 72 h
# [9] = molecular target: Tyrosine-protein kinase JAK2 (Homo sapiens) (UniProt O60674); experiment: Inhibition of TEL-fused JAK2 (unknown origin) expressed in mouse BA/F3 cells after 72 hrs by CellTiter-Glo assay; format: cell-based
# Tyrosine-protein kinase JAK2 (Homo sapiens), sequence (O60674 whole entry, the tested form may be a part): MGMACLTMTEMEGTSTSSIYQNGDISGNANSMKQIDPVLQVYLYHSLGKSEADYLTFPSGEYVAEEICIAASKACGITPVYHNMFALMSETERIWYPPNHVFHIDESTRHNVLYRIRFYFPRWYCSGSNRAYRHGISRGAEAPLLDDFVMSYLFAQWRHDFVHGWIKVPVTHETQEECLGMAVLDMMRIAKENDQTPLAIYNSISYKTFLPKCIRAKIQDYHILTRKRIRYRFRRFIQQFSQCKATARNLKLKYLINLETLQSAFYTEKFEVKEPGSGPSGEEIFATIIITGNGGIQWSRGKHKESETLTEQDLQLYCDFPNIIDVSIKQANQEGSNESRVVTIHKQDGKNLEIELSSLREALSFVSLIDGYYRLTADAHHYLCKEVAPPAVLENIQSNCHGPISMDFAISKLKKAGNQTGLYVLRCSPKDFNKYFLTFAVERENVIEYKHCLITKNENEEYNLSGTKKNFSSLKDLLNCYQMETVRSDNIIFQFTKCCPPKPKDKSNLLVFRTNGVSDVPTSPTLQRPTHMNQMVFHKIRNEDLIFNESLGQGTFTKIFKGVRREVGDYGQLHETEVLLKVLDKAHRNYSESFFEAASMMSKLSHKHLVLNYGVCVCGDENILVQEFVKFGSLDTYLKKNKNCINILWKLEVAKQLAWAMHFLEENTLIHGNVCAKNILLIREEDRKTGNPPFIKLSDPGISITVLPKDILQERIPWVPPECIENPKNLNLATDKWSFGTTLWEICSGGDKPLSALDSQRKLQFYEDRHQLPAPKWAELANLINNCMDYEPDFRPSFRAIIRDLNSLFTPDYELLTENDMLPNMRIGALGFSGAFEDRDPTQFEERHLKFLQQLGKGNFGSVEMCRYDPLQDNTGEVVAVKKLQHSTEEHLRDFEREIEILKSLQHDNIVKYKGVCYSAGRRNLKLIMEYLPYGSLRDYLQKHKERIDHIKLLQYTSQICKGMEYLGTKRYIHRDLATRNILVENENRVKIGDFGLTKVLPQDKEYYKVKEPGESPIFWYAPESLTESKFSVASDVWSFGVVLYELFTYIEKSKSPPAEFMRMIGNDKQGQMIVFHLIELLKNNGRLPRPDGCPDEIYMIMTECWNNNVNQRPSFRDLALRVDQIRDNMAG
# NCI-H460 = experiment: Antiproliferative activity against human NCI-H460 cells after 72 hrs by CellTiter-Glo assay; format: functional; settings: NCI-H460, 72 h
# DU-145 = experiment: Antiproliferative activity against human DU145 cells after 72 hrs by CellTiter-Glo assay; format: functional; settings: DU-145, 72 h
# SU-DHL-2 = experiment: Antiproliferative activity against human SUDHL2 cells after 72 hrs by CellTiter-Glo assay; format: functional; settings: SU-DHL-2, 72 h
# A549 = experiment: Antiproliferative activity against human A549 cells after 72 hrs by CellTiter-Glo assay; format: functional; settings: A549, 72 h
# HeLa = experiment: Antiproliferative activity against human HeLa cells after 72 hrs by CellTiter-Glo assay; format: functional
# [10] = Antiproliferative activity against human RV1 cells after 72 hrs by CellTiter-Glo assay; format: functional; settings: RV-1, 72 h
# NOMO-1 = experiment: Antiproliferative activity against human NOMO1 cells after 72 hrs by CellTiter-Glo assay; format: functional; settings: NOMO-1, 72 h
# JVM-2 = experiment: Antiproliferative activity against human JVM2 cells after 72 hrs by CellTiter-Glo assay; format: functional; settings: JVM-2, 72 h
# NCI-H1975 = experiment: Antiproliferative activity against human NCI-H1975 cells after 72 hrs by CellTiter-Glo assay; format: functional; settings: NCI-H1975, 72 h
# K562 = experiment: Antiproliferative activity against human K562 cells after 72 hrs by CellTiter-Glo assay; format: functional; settings: K562, 72 h
# HEL = experiment: Antiproliferative activity against human HEL cells after 72 hrs by CellTiter-Glo assay; format: functional
# [11] = molecular target: Tyrosine-protein kinase JAK1 (Homo sapiens) (UniProt P23458); experiment: Inhibition of TEL-fused JAK1 (unknown origin) expressed in mouse BA/F3 cells after 72 hrs by CellTiter-Glo assay; format: cell-based
# Tyrosine-protein kinase JAK1 (Homo sapiens), sequence (P23458 whole entry, the tested form may be a part): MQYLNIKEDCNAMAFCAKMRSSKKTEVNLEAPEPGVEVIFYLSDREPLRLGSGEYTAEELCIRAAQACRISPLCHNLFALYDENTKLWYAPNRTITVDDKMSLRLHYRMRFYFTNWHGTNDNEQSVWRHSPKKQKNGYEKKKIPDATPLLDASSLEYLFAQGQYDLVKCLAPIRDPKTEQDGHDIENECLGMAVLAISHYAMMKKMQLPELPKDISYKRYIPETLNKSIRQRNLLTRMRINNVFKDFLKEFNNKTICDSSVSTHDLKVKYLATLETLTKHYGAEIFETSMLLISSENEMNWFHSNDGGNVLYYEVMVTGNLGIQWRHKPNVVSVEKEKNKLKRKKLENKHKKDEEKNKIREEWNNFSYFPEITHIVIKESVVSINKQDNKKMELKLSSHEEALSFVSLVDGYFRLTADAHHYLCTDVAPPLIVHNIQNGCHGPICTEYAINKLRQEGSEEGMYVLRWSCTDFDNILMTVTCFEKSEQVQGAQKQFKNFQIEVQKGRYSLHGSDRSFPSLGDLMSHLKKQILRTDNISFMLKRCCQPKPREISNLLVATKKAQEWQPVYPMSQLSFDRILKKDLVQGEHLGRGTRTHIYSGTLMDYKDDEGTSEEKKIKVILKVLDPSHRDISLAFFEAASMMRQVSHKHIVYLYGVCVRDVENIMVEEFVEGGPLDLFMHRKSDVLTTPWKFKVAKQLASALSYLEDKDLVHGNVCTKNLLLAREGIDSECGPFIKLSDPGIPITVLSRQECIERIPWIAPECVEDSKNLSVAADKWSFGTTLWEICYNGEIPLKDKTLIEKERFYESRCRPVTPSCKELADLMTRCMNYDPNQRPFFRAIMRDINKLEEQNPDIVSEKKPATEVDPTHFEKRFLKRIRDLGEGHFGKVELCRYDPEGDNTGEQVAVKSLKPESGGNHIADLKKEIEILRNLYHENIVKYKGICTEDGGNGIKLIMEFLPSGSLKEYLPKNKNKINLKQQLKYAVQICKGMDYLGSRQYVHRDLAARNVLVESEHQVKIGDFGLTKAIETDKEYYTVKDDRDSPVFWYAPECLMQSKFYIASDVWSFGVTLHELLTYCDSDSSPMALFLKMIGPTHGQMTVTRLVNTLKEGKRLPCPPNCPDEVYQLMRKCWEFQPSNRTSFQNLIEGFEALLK
# [12] = tested on: Epidermal growth factor receptor (Homo sapiens), P00533 [L858R,T790M]; experiment: Inhibition of TEL-fused EGFR T790M/L858R mutant (unknown origin) expressed in mouse BA/F3 cells after 72 hrs by CellTiter-Glo assay; format: cell-based
# LNCaP C4-2 = experiment: Antiproliferative activity against human C4-2 cells after 72 hrs by CellTiter-Glo assay; format: functional; settings: LNCaP C4-2, 72 h
# Z-138 = experiment: Antiproliferative activity against human Z138 cells after 72 hrs by CellTiter-Glo assay; format: functional; settings: Z-138, 72 h
# Rec1 = experiment: Antiproliferative activity against human Rec1 cells after 72 hrs by CellTiter-Glo assay; format: functional; settings: Rec1, 72 h
# OCI-AML2 = experiment: Antiproliferative activity against human OCI-AML2 cells after 72 hrs by CellTiter-Glo assay; format: functional; settings: OCI-AML2, 72 h
# U2932 = experiment: Antiproliferative activity against human U2932 cells after 72 hrs by CellTiter-Glo assay; format: functional; settings: U2932, 72 h
# Tyrosine-protein kinase Blk, sequence (P51451 whole entry): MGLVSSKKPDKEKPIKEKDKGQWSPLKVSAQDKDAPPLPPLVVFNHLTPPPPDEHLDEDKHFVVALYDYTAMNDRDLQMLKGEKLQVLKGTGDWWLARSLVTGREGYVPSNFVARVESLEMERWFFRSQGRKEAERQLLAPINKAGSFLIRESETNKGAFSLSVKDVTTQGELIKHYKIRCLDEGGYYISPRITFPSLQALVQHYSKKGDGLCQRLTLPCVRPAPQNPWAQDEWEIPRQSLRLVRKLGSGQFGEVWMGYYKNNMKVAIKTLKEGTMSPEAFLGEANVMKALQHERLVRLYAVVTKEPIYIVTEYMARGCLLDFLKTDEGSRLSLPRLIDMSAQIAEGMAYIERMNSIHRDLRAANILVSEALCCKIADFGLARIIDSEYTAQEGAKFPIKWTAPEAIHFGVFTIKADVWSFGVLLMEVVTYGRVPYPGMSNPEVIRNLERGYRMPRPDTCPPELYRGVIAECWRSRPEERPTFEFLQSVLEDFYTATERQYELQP
compound,measurement,setting,value
C=CC(=O)N1CCc2ccc(-n3c(=O)ccc4cnc5ccc(-c6ccc(S(=O)(=O)NC(C)(C)C)cc6)cc5c43)cc21,IC50,[1],0.0836 µM
same,IC50,[2],> 10 µM
C=CC(=O)Nc1cc(-n2c(=O)ccc3cnc4ccc(-c5ccc(N)nc5)cc4c32)ccc1C,IC50,[1],0.177 µM
same,IC50,[2],0.177 µM
C=CC(=O)Nc1cc(-n2c(=O)ccc3cnc4ccc(-c5cn[nH]c5)cc4c32)ccc1C,Ki,[3],0.002 µM
same,Kinact,[3],0.14 min⁻¹
same,Ratio,[4],1.17 µM⁻¹ s⁻¹
C=CC(=O)Nc1cc(-n2c(=O)ccc3cnc4ccc(-c5ccc(COc6cccc(C(F)(F)F)c6)cc5)cc4c32)ccc1C,IC50,[1],2.06 µM
same,IC50,[2],0.65 µM
C=CC(=O)N1CCc2ccc(-n3c(=O)ccc4cnc5ccc(-c6ccc(N7CCN(C)CC7)cc6)cc5c43)cc21,IC50,[1],> 10 µM
same,IC50,[2],1.56 µM
C=CC(=O)N1CCC[C@@H](n2nc(-c3ccc(Oc4ccccc4)cc3)c3c(N)ncnc32)C1 [IBRUTINIB],GI50,HL-60,3.5 µM
same,GI50,MOLM-13,1.3 µM
same,GI50,OCI-AML-3,> 10 µM
same,GI50 at 72 h,[5],> 10 µM
same,GI50,U-937,8.5 µM
same,GI50,NAMALVA,6 µM
same,GI50,[6],8.2 µM
same,GI50,NCI-H358,> 10 µM
same,GI50,CMK,> 10 µM
same,GI50,Pfeiffer,8.4 µM
same,GI50,A-431,> 10 µM
same,GI50,[7],4.4 µM
same,GI50,[8],> 10 µM
same,GI50,MOLM-14,1.8 µM
same,GI50,HCT-116,> 10 µM
same,GI50,NB-4,7.5 µM
same,GI50,NALM-6,> 10 µM
same,GI50,[9],9.02 µM
same,GI50,NCI-H460,> 10 µM
same,GI50,DU-145,> 10 µM
same,GI50,SU-DHL-2,2.2 µM
same,GI50,A549,> 10 µM
same,GI50,HeLa,> 10 µM
same,GI50,[10],> 10 µM
same,GI50,NOMO-1,> 10 µM
same,GI50,JVM-2,> 10 µM
same,GI50,NCI-H1975,1.2 µM
same,GI50,K562,> 10 µM
same,GI50,HEL,4 µM
same,GI50,[11],8.93 µM
same,GI50,[12],2.76 µM
same,GI50,LNCaP C4-2,> 10 µM
same,GI50,Z-138,> 10 µM
same,GI50,Rec1,> 10 µM
same,GI50,OCI-AML2,> 10 µM
same,GI50,U2932,4 µM
C=CC(=O)Nc1cccc(-n2c(=O)ccc3cnc4ccc(-c5cn[nH]c5)cc4c32)c1,IC50,[1],0.293 µM
same,IC50,[2],0.224 µM
C=CC(=O)Nc1cc(-n2c(=O)ccc3cnc4ccc(-c5ccccc5)cc4c32)ccc1C,IC50,[2],0.0253 µM
C=CC(=O)Nc1cc(-n2c(=O)ccc3cnc4ccc(-c5cnn(C)c5)cc4c32)ccc1C,IC50,[1],0.339 µM
same,IC50,[2],0.343 µM
